The values that follow come from patent publication EP4603105A1, “PHARMACEUTICAL COMPOSITION CONTAINING CYCLIC COMPOUND HAVING SELECTIVE KRAS INHIBITORY EFFECT AGAINST HRAS AND NRAS” (CHUGAI SEIYAKU KABUSHIKI KAISHA, priority 2022, dated 2024).

The test system of assay [1] is human gastric cancer strain GSU. The class given is cell-based. On the procedure:
(§1) A test compound was dispensed into a U-bottom 384-well plate as 40 nL serially diluted dimethyl sulfoxide solutions using a liquid handler Echo (LABCYTE). As for human gastric cancer strain GSU (Institute of Physical and Chemical Research), a cell suspension was prepared so as to have 200 cells/40 µL in an RPMI-1640 medium (Sigma) supplemented with 10% fetal bovine serum (Sigma). This cell suspension was dispensed in an amount of 40 µL per well into a plate containing the test compound, and cultured at 37°C in a 5% carbon dioxide gas incubator. Seven days later, 20 µL of CellTiter-Glo (registered trademark) (Promega) was added to each well and luminescence was measured.

The test system of assay [2] is human ovarian cancer strain OV7. It counts as cell-based. On the procedure:
A test compound was dispensed into a U-bottom 384-well plate as 40 nL serially diluted dimethyl sulfoxide solutions using a liquid handler Echo (LABCYTE). As for human ovarian cancer strain OV7 (ECACC), a cell suspension was prepared so as to have 250 cells/40 µL in a DMEM/Ham's F-12 medium (Nacalai Tesque) supplemented with 5% fetal bovine serum (Sigma), 0.5 µg/mL hydrocortisone, and 10 µg/mL insulin. This cell suspension was dispensed in an amount of 40 µL per well into a plate containing the test compound, and cultured at 37°C in a 5% carbon dioxide gas incubator. Seven days later, 20 µL of CellTiter-Glo (registered trademark) (Promega) was added to each well and luminescence was measured.

Assay [3] addresses GDP-bound NRAS wild-type protein (Homo sapiens, UniProt P01111). In words: Binding to NRAS by surface plasmon resonance (SPR), KD and KD ratio to KRAS. An outline of the steps:
(§2)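 Biotinylated GDP-bound RAS was captured at about 100–300 RU. Running buffer: HBS pH 7.4, 10 mM MgCl2, 10 µM GDP, 1 mM DTT, 0.01% Tween 20, 4% DMSO.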

Assay [4] relates to human pancreatic cancer strain KP4. It counts as cell-based. On the procedure:
as §1, with “human pancreatic” for “human gastric”, “strain KP4” for “strain GSU”, “have 500” for “have 200”, “in a DMEM/Ham's F-12” for “in an RPMI-1640”, “medium (Nacalai Tesque)” for “medium (Sigma)”

Assay [5] relates to human gastric cancer strain SNU-1. It counts as cell-based. On the procedure: as §1, with “SNU-1 (ATCC),” for “GSU (Institute of Physical and Chemical Research),”, “250” for “200”, “(Sigma), a 2.5 g/L D-(+)-glucose solution, 10 mmol/L HEPES, and 1 mmol/L sodium pyruvate.” for “(Sigma).”
Assay [6] relates to human colorectal cancer strain GP2d. It counts as cell-based. On the procedure: as §1, with “colorectal” for “gastric”, “GP2d (ECACC),” for “GSU (Institute of Physical and Chemical Research),”, “500” for “200”, “a Dulbecco's modified Eagle” for “an RPMI-1640”, “medium” for “medium (Sigma)”
The test system of assay [7] is human lung cancer strain NCI-H441. It counts as cell-based. The method in brief:
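Step one: dispense the test compound in serial DMSO dilutions. Step three: add the reagent and measure […].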

The target in assay [8] is GDP-bound KRAS wild-type protein (Homo sapiens, UniProt P01116). Nature of the assay: Binding to KRAS by surface plasmon resonance (SPR), dissociation constant KD. The method in brief:
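Read-out is KD from 1:1 fitting of single-cycle kinetics sensorgrams, blank-cycle and reference-surface corrected. Proteins were GDP-loaded, biotinylated Avi-fusions freshly captured each cycle at roughly 100–300 RU. Runs were at 30°C in HBS pH 7.4 with MgCl2, GDP and 4% DMSO.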

The target of assay [9] is HRAS wild-type protein (Homo sapiens, UniProt P01112). In words: Binding to HRAS by surface plasmon resonance (SPR), KD and KD ratio to KRAS. The method in brief:
as §2

Assay [10] deals with human bladder cancer strain UM-UC-3. It counts as cell-based. On the procedure: A test compound was dispensed into a U-bottom 384-well plate as 40 nL serially diluted dimethyl sulfoxide solutions using a liquid handler Echo (LABCYTE). As for human bladder cancer strain UM-UC-3 (ATCC), a cell suspension was prepared so as to have 250 cells/40 µL in an MEM medium (Nacalai Tesque) supplemented with 10% fetal bovine serum (Sigma), an MEM non-essential amino acids solution (100X), and 1 mmol/L sodium pyruvate. This cell suspension was dispensed in an amount of 40 µL per well into a plate containing the test compound, and cultured at 37°C in a 5% carbon dioxide gas incubator. Seven days later, 20 µL of CellTiter-Glo (registered trademark) (Promega) was added to each well and luminescence was measured. […]

[11] abbreviates: ratio of KD for GDP-bound NRAS wild-type protein to KD for KRAS.
Setting [12] is: ratio of KD for HRAS wild-type protein to KD for KRAS.
Where [13] appears, read: Single Cycle Kinetics, 1:1 binding model.

Molecules are shown by their SMILES.

HRAS wild-type protein, sequence (P01112 whole entry): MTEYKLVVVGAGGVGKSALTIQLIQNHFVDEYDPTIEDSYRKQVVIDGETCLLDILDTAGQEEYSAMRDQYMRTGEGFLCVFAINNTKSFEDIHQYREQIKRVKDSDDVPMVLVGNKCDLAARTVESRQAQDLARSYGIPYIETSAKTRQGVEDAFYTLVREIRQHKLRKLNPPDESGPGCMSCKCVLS
GDP-bound NRAS wild-type protein, sequence (P01111 whole entry): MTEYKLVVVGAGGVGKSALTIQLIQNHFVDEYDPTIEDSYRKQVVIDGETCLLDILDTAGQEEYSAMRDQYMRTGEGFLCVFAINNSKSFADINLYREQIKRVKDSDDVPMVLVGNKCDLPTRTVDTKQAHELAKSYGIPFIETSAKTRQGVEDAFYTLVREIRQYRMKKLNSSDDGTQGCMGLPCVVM
GDP-bound KRAS wild-type protein, sequence (P01116 1-188 isoform P01116-2): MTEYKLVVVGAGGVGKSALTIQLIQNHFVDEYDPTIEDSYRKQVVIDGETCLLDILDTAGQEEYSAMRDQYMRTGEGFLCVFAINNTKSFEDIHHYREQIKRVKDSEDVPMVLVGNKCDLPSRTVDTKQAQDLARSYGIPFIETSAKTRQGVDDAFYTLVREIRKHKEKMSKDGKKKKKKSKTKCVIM

As for `CCO[C@@H]1C[C@H]2C(=O)NC3(CCCC3)C(=O)N(C)[C@@H](C3CCCC3)C(=O)N(C)[C@H](C(=O)N(C)C)CC(=O)N(C)[C@@H](CC(C)C)C(=O)N[C@@H]([C@@H](C)CC)C(=O)N(C)CC(=O)N(C)[C@H]3C/C=C\CCN(C3=O)[C@@H](Cc3ccc(C(F)(F)F)cc3)C(=O)N(C)CC(=O)N[C@@H](CCc3cc(F)c(C(F)(F)F)c(F)c3)C(=O)N2C1` [PP1105, (2S,8S,12R,14S,20S,23S,27S,30S,36S,38Z)-20-cyclopentyl-8-[2-[3,5-difluoro-4-(trifluoromethyl)phenyl]ethyl]-12-ethoxy-27-isobutyl-N,N,4,19,22,26,32,35-octamethyl-30-[(1S)-1-methylpropyl]-3,6,9,15,18,21,25,28,31,34,42-undecaoxo-2-[[4-(trifluoromethyl)phenyl]methyl]spiro[1,4,7,10,16,19,22,26,29,32,35-undecazatricyclo[34.5.1.0^10,14]dotetracont-38-ene-17,1'-cyclopentane]-23-carboxamide], the IC50 was determined as 0.3 nM in [1]; 8.1 nM in assay [2]; 3.1 nM in [4]; 2.7 nM in [5]; 2.9 nM in [6]; 12 nM in assay [7]. The same compound displayed an IC50 in [10] of 2.1 nM. Moreover, the “NRAS /KRAS” value in [3] (setting [11]) was “A (a compound having 10 or more and less than 20 is denoted as A)”. For the same compound, in [8] (Single Cycle Kinetics), the Kd came to 0.07 nM. In addition, the “HRAS /KRAS” value in assay [9] (setting [12]) is “A (a compound having 10 or more and less than 20 is denoted as A)”.

Regarding `CCCC[C@H]1C(=O)N[C@@H]([C@@H](C)CC)C(=O)N(C)CC(=O)N(C)[C@H]2C/C=C\CCN(C2=O)[C@@H](Cc2ccc(C(F)(F)F)cc2)C(=O)N(C)CC(=O)N[C@@H](CCc2cc(F)c(C(F)(F)F)c(F)c2)C(=O)N2C[C@H](F)C[C@H]2C(=O)NC2(CC(C)(C)C2)C(=O)N(C)[C@@H](C2CCCC2)C(=O)N(C)[C@H](C(=O)N(C)C)CC(=O)N1C` [PP1693, (2S,8S,12R,14S,20S,23S,27S,30S,36S,38Z)-27-butyl-20-cyclopentyl-8-[2-[3,5-difluoro-4-(trifluoromethyl)phenyl]ethyl]-12-fluoro-N,N,3',3',4,19,22,26,32,35-decamethyl-30-[(1S)-1-methylpropyl]-3,6,9,15,18,21,25,28,31,34,42-undecaoxo-2-[[4-(trifluoromethyl)phenyl]methyl]spiro[1,4,7,10,16,19,22,26,29,32,35-undecazatricyclo[34.5.1.0^10,14]dotetracont-38-ene-17,1'-cyclobutane]-23-carboxamide], the IC50 in [1] is 0.5 nM; in assay [2], 7.4 nM; in assay [4] it was 14.2 nM; in [5] it was 4.3 nM; in assay [6], 2.4 nM; in assay [7], 1.1 nM. In assay [10], this compound gave an IC50 of 4.1 nM. Besides, the “NRAS /KRAS” value in assay [3] (ratio of KD value for GDP-bound NRAS wild-type protein to KD value for KRAS (SPR)) is on record as “AA (a compound having 20 or more is denoted as AA)”. In [8] (setting [13]), this compound came in with a Kd of 0.027 nM. Also, in assay [9] (ratio of KD value for HRAS wild-type protein to KD value for KRAS (SPR)), the “HRAS /KRAS” value was “A (a compound having 10 or more and less than 20 is denoted as A)”.

With `CCC[C@H]1C(=O)N[C@@H]([C@@H](C)CC)C(=O)N(C)CC(=O)N(C)[C@H]2C/C=C\CCN(C2=O)[C@@H](Cc2ccc(C(F)(F)F)cc2)C(=O)N(C)CC(=O)N[C@@H](CCc2ccc(Cl)c(Cl)c2)C(=O)N2C[C@H](OCC)C[C@H]2C(=O)NC2(CC(C)(C)C2)C(=O)N(C)[C@@H](C(CC)CC)C(=O)N(C)[C@H](C(=O)N(C)C)CC(=O)N1C` [PP2175, (2S,8S,12R,14S,20S,23S,27S,30S,36S,38Z)-8-[2-(3,4-dichlorophenyl)ethyl]-12-ethoxy-20-(1-ethylpropyl)-N,N,3',3',4,19,22,26,32,35-decamethyl-30-[(1S)-1-methylpropyl]-3,6,9,15,18,21,25,28,31,34,42-undecaoxo-27-propyl-2-[[4-(trifluoromethyl)phenyl]methyl]spiro[1,4,7,10,16,19,22,26,29,32,35-undecazatricyclo[34.5.1.0^10,14]dotetracont-38-ene-17,1'-cyclobutane]-23-carboxamide], the IC50 was 0.5 nM in [1]; 80.2 nM in assay [2]; 102 nM in assay [4]; 20 nM in assay [5]; 24.8 nM in [6]; 25.7 nM in assay [7]. In addition, the midpoint of inhibition in assay [10], the IC50, lay at 19.7 nM. The “NRAS /KRAS” value in [3] (ratio of the KD value with respect to GDP-bound NRAS wild-type protein to the KD value with respect to KRAS) is listed as “AA (a compound having 20 or more is denoted as AA)”. The same compound showed a dissociation constant (Kd) in assay [8] (setting [13]) of 0.45 nM. For the same compound, the “HRAS /KRAS” value in assay [9] (ratio of the KD value with respect to HRAS wild-type protein to the KD value with respect to KRAS) was “A (a compound having 10 or more and less than 20 is denoted as A)”.

Take `CCC[C@H]1C(=O)N[C@@H]([C@@H](C)CC)C(=O)N(C2CC2)CC(=O)N(C)[C@H]2C/C=C\CCN(C2=O)[C@@H](Cc2ccc(C(F)(F)F)cc2)C(=O)N(C)CC(=O)N[C@@H](CCc2cc(F)c(C(F)(F)F)c(F)c2)C(=O)N2C[C@H](OCC)C[C@H]2C(=O)NC2(CC(C)(C)C2)C(=O)N(C)[C@@H](CC(C)(C)C)C(=O)N(C)[C@H](C(=O)N(C)C)CC(=O)N1C` [PP2742]: the IC50 was 3.2 nM in assay [1]; 20.4 nM in [2]; 28.7 nM in assay [4]; 26.7 nM in [5]; 12 nM in assay [6]; 14.9 nM in assay [7]. It took 15.4 nM to reach half-maximal inhibition in assay [10] (IC50). Besides, in [3] (setting [11]), the “NRAS /KRAS” value is on record as “AA (a compound having 20 or more is denoted as AA)”. This compound also returned a Kd in assay [8] (1:1 binding model) of 0.26 nM. In [9] (setting [12]), the “HRAS /KRAS” value was “A (a compound having 10 or more and less than 20 is denoted as A)”.
